Data on 3 compounds can be found in publication PMC9179341, “Design of New Potent and Selective Thiophene-Based KV1.3 Inhibitors and Their Potential for Anticancer Activity” (Cancers, 2022).

Entries after “also recorded” stand apart in the source; their conditions may differ.

One data set has as its system Colo-357 tumor spheroids. As to the kind of experiment: Apoptosis (caspase 3/7 activity) in Colo-357 tumor spheroids. It counts as cell-based. The following applies: with 8.9 µM cycloheximide, up to 100 µM. The method, then:
Cell lines Panc-1 (ACC 783) and Colo-357 (CVCL_0221) were obtained through the validated collection of the pHioniC consortium (MSC-ITN 813834). Both cell lines were grown in RPMI1640, supplemented with 1 mM sodium pyruvate and 1% Glutamax (all Gibco Thermo-Fisher, Waltham, MA USA) 10%FBS (BioChrom, Berlin, Germany), at 5% CO2 and 37 °C in a humidified atmosphere.
Spheroids were cultured in round bottom ultra-low attachment 96-well plates (Corning). The optimal seeding densities were empirically determined (8000 cells/well for Colo-357 or 10,000 cells/well for Panc-1 spheroids. The cells were suspended in 2% Matrigel (Corning), centrifuged at 1000× g for 10 min and the spheroids were allowed to form in the incubator. Once the spheroids were formed, the treatments indicated together with 8.9 µM cycloheximide (as apoptosis sensitizer) were added and apoptosis was determined by live imaging in the Incucyte system in real time for approximately 60 h using Caspase-3/7 green reagent (Sartorius) as a reporter of apoptosis, which crosses the cell membrane and is cleaved by the activated Caspase-3/7, resulting in the fluorescent staining of nuclear DNA. Apoptosis on Panc-1 tumor spheroids is presented as integrated green fluorescence in the whole spheroid.

Data set [1] in a line: Turbidimetric solubility assay. It counts as physicochemical. The method, then: For the phosphate-buffered saline, we dissolved 2.38 g of disodium hydrogen phosphate dodecahydrate, 0.19 g of potassium dihydrogen phosphate, and 8.0 g of sodium chloride in water and diluted it to 1000 mL with the same solvent. Then we adjusted the pH to 7.4. The stock DMSO solutions of the compounds were prepared at concentrations of 50 mM, 20 mM, 10 mM, and 1 mM. The final solutions (500 µM, 200 µM, 100 µM, and 10 µM) were prepared by adding 2 µL of the stock DMSO solution to 198 µL of phosphate-buffered saline. The absorbance (area scan) was measured at 620 nm for sample volume of 200 µL and the appearance of the solutions was checked by visual inspection.

In data set [2] the test system is other KV1.x family channels or more distantly related channels. Set-up: method as in PMID 32199306. The note with it: cited from earlier work.
For a further data set, the target named is KV1.3 (Homo sapiens, UniProt P22001). Set-up: method as in PMID 32199306. The note with it: applied ex vivo to Kv1.3 expressing oocytes; read-out: IC50 KV1.3 (previous work); cited from earlier work.
Chain of KV1.3 (P22001 whole entry): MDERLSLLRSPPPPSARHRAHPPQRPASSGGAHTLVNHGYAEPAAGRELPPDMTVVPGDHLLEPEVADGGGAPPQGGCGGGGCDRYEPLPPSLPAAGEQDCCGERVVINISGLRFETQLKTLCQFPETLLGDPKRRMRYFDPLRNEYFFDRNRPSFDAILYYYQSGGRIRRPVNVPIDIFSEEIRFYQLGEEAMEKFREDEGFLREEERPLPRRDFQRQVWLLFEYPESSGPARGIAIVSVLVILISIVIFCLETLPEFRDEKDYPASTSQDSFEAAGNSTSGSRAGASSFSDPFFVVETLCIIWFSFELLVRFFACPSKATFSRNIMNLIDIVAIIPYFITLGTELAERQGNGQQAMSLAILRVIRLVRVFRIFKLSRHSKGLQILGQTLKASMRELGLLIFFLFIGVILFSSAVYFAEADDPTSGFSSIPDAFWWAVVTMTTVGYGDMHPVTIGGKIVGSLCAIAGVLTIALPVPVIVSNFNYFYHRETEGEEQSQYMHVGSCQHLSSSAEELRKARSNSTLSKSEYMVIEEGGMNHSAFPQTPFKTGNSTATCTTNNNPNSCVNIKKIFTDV
Another data set has as its system Panc-1 cell line. The arrangement: method as in PMID 29034212. The following applies: Panc-1; 20 µM; cited from earlier work.
For the next data set, the system named is Colo-357. Set-up: method as in PMID 29034212. The note with it: read-out: EC50 cell death; cited from earlier work.
Data set [3] concerns KV1.1, KV1.2, KV1.5 and KV3.1. Set-up: method as in PMID 19104661. The following applies: cited from earlier work.
The test system of data set [4] is cancer cells (human SAOS2, mouse B16F10 melanoma, and human B-CLL). The note with it: PAP-1 20 µM, clofazimine 1 or 10 µM, with MDRi cyclosporine H (4 µM) and probenecid (100 µM); cited from earlier work.
The subject of data set [5] is pancreatic ductal adenocarcinoma (PDAC) cell lines. The following applies: cited from earlier work.
In data set [6] the test system is orthotopic PDAC xenotransplantation model. The following applies: orthotopic PDAC xenotransplantation model in SCID beige mice; cited from earlier work.

Regarding `COc1ccccc1C(=O)NCC1(c2ccsc2)CCCC1` [Compound 4], the “Induction of apoptosis in Colo-357 spheroids” value in the data set on Colo-357 tumor spheroids was “significant induction of apoptosis; also recorded: induced a significant amount of apoptosis”. In addition, the “absorbance at 620 nm” value in data set [1] (10 µM in PBS with 1 % final DMSO) is listed as 0; in [1] (100 µM in PBS with 1 % final DMSO), 0,035; in data set [1] (200 µM in PBS with 1 % final DMSO) it was 0,127; in data set [1] (500 µM in PBS with 1 % final DMSO), 0,189. Moreover, the “Effect on other KV1.x family channels or more distantly related channels” value in data set [2] is listed as “did not affect”.

As for `COc1ccccc1C(=O)NCC1(c2ccccc2)CCOCC1` [Compound 5], on KV1.3, the IC50 is 0.92 µM.

With `CC(C)/N=c1\cc2n(-c3ccc(Cl)cc3)c3ccccc3nc-2cc1Nc1ccc(Cl)cc1` [clofazimine (3), clofazimine], the cell death result in the data set with Panc-1 cell line is “less than 30%”. Further, in the data set on Colo-357, the 50% effective concentration (EC50) is 1.5 µM. For the same compound, in data set [3], the “Potency on KV1.3 relative to KV1.1, KV1.2, KV1.5 and KV3.1” value is on record as “tenfold higher potency”. In data set [4], the “Induction of apoptosis in cancer cells” value is “induced mild apoptosis”. Besides, in data set [5], the “EC50 apoptosis in PDAC cell lines” value is listed as “micromolar range” and the “Induction of apoptosis in PDAC cell lines” value is “induced significant apoptosis”. For the same compound, the Primary tumor weight entry in data set [6] is given as “significantly reduced”.
